Measured values published in US9150887B2, “Ethanologenic bacteria with increased resistance to furfural” (UNIVERSITY OF FLORIDA RESEARCH FOUNDATION, INC., priority 2009, dated 2015).
≈ marks a conversion by molar mass, not a printed value. Entries after “also recorded” stand apart in the source; their conditions may differ. Read-outs that look alike come from different tables or passages of the source.

Tests used:
EMFR9 [1] = test: Effect of 5-HMF on anaerobic growth and fermentation; assay type: cell-based, Escherichia coli
Protocol: (§1) For fermentation experiments, seed cultures of LY180 and EMFR9 were grown overnight in small fermentors (37° C., 200 rpm) containing 350 ml of AM1 medium. Broth was maintained at pH 6.5 by the automatic addition of 2 N KOH. Upon reaching mid-log phase, experimental fermenters were inoculated to an initial cell density of 0.1 OD550 nm. (33 mg dry cell weight l^−1). Cell mass (OD550 nm) and furan levels were monitored at 12-h intervals as described previously (Martinez et al. 2000b Biotechnol Prog 16: 637-641).

LY180 [2] = test: as above; assay type: cell-based, Escherichia coli; conditions: 1.0 g l^−1 5-HMF; 100 g l^−1 xylose
Protocol: as §1

LY180 [3] = test: 5-HMF tolerance in tube cultures with cysteine supplement; assay type: cell-based, Escherichia coli
Protocol: Tolerance to 5-HMF was tested using 13×100 mm closed tubes containing 4 ml AM1 and 5-HMF as indicated. When appropriate, antibiotics were included for plasmid maintenance. Tubes were inoculated to an initial density of 0.05 OD550 nm. […] To examine the effects of pntAB on furan tolerance, a multiwall plate containing 400 μl of AM1 (and 5-HMF or furfural) per well was inoculated as above. OD(420-580 nm bandwidth) was measured for 72 h using a Bioscreen C growth analyzer (Oy Growth Curves, Helsinki, Finland).

yqhD promoter [4] = test: Luciferase reporter activity from the yqhD promoter in LY180; assay type: cell-based, Escherichia coli
Protocol: (§2) Cultures of E. coli carrying appropriate reporter plasmids were grown in AM1-5% xylose to OD 0.2-0.4. After addition of furfural, cells were pelleted, resuspended in Qiagen Qproteome bacterial lysis buffer, and stored at −80° C. The lysates were thawed at 37° C. for 2 minutes, and transferred to a white 96-well plate. An equal volume (50 uL) of PerkinElmer BriteLite reagent was added to each well, and the luminescence measured in a Promega Glomax 96-well luminometer.
(§3) Plasmid pLOI4900 was constructed by transferring the firefly luciferase gene into pBAD24 (Guzman et al. 1995 J. Bacteriol. 177: 4121-4130), and then replacing the araC gene and pBAD promoter regions with a 150-bp region upstream from the yqhD gene in LY180. This putative yqhD promoter region was PCR amplified using primers PCT6 and PCT7 (Table 2).
(§4) Cultures of E. coli carrying appropriate reporter plasmids were grown in AM1-50 g liter^−1 xylose to OD 0.4. After sampling the cultures, furfural was added, and incubation continued for 5, 15 or 30 min before sampling again. Untreated and furfural-treated cells were pelleted, resuspended in Qiagen Qproteome bacterial lysis buffer, and stored at −80° C. The lysates were thawed at 37° C. for 2 minutes, and transferred to a 96-well plate (white). An equal volume (50 μL) of PerkinElmer BriteLite reagent was added to each well. Luminescence was measured using a Promega Glomax 96-well luminometer.

yqhD promoter [5] = test: Luciferase reporter activity from the yqhD promoter in LY180ΔyqhC; assay type: cell-based, Escherichia coli; conditions: yqhC deletion strain with pLOI4900; furfural addition
Protocol: as §2, §3
as §4, with “An equal volume (50 μL) of PerkinElmer BriteLite reagent was added to each well.” left out

yqhD promoter [6] = test: Luciferase reporter activity from the yqhD promoter in EMFR9; assay type: cell-based, Escherichia coli; conditions: EMFR9 with yqhD promoter reporter plasmid; furfural addition
Protocol: as §2, §4

LY180 [7] = test: Furfural reduction in vivo during fermentation; assay type: cell-based, Escherichia coli; conditions: furfural 0.5 g liter^−1
Protocol: (§5) Cultures grown to a cell density of […] in fleakers containing 350 mL AM1-10% xylose medium were sampled immediately before and 15, 30, and 60 minutes after addition of furfural to 0.5 g/L. The residual furfural concentration in the culture was determined after removal of bacterial cells by centrifugation. A spectrophotometric method was used, as described previously.
(§6) Cultures were grown to a cell density of 0.66 g dcw liter^−1 in fleakers containing 350 mL AM1-100 g liter^−1 xylose medium and sampled immediately before and 15, 30, and 60 minutes after addition of furfural (to 0.5 g liter^−1) as previously described (Miller et al. 2009 Appl. Environ. Microbiol. 75:4315-4323). Residual furfural was measured in the culture broth after centrifugation using a spectrophotometric method (Martinez et al. 2000 Biotechnol. Prog. 16: 637-641).

LY180ΔyqhC = test: Furfural reduction in vivo during fermentation; assay type: cell-based, Escherichia coli; conditions: furfural 0.5 g liter^−1
Protocol: as §5, §6

[8] = tested on: yqhC, yqhD and dkgA transcripts in LY180; test: Microarray analysis of transcripts after furfural addition; assay type: cell-based, Escherichia coli; conditions: 15 min after 0.5 g liter^−1 furfural
Protocol: For each strain, 4 replicate 350 ml cultures were grown to OD=[…] (0.66 g dcw liter^−1) and sampled. Furfural (0.5 g liter^−1) was added and samples were removed after 15 minutes of incubation. Culture samples were cooled in a dry ice/ethanol bath. Cells were pelleted at 4° C., resuspended in RNA Later (Qiagen), and stored at −80° C. Cell pellets from the 4 fermentors were pooled and used for RNA isolation (Qiagen RNeasy Mini Kit). RNA was treated with DNase, re-purified, and assessed for quality using an Agilent Bioanalyzer. RNA samples were submitted to Nimblegen for conversion to cDNA, labeling with Cy3, and hybridization to the E. coli K12 TI8333 microarray chip. This chip contains 385,000 60-mer probes derived from E. coli K12 strain MG1655, and has 5 replicates of each probe with an average of 18 probes per gene. Normalized expression data from Nimblegen was imported into ArrayStar (DNA Star) for analysis.

EMFR9 [9] = test: Furfural resistance and metabolism during pH-controlled fermentation; assay type: cell-based, Escherichia coli
Protocol: (§7) Furfural resistance was compared in small fermenters (37° C., 150 rpm, pH 6.5, 350-ml working volume) using AM1 medium (Martinez et al. 2007 Biotechnol. Lett. 29:397-404) containing 100 g liter^−1 xylose. Seed cultures were inoculated to approximately 33 mg dcw liter^−1. Samples were removed periodically to measure cell mass, ethanol, and furfural.

LY180 [10] = test: as above; assay type: cell-based, Escherichia coli
Protocol: as §7

yqhD promoter [11] = test: Luciferase reporter activity from the yqhD promoter in EMFR17; assay type: cell-based, Escherichia coli; conditions: EMFR17 with pPyqhD-luc; furfural addition
Protocol: as §2

EMFR9 [12] = test: Furfural toxicity (MIC) in tube cultures; assay type: cell-based, Escherichia coli; conditions: for MIC: other compounds of hemicellulose hydrolysates, data not shown
Protocol: (§8) Cultures were inoculated to an initial density of 17 mg dcw liter^−1. Cell mass was measured after incubation at 37° C. for 24 h and 48 h.

LY180 [13] = test: Furfural toxicity (MIC) in tube cultures; assay type: cell-based, Escherichia coli; conditions: for MIC: other compounds of hemicellulose hydrolysates, data not shown
Protocol: as §8

YqhD [14] = target: T1, YqhD (Escherichia coli, UniProt Q46856); design: For-[…]; His-tag (N); made in house; host or cells: E. coli BL21 (DE3); conditions: Miller et al. 2009b; read-out: apparent Km for NADPH; cited from earlier work
T1 sequence (Q46856 1-387): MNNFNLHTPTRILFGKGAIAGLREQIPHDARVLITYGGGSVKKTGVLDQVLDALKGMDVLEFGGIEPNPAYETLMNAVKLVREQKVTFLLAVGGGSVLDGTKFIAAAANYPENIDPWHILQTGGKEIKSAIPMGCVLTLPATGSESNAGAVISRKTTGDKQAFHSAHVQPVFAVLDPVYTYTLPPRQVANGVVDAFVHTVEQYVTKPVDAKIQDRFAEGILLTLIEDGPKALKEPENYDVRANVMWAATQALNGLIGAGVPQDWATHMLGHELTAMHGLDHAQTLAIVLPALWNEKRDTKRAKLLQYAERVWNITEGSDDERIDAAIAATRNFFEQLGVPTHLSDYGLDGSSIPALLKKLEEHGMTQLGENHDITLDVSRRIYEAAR

DkgA [15] = target: T2, DkgA (Escherichia coli, UniProt Q46857); conditions: Miller et al. 2009b; read-out: apparent Km for NADPH; cited from earlier work
T2 construct: For-[…]; His-tag (N); made in house; host or cells: E. coli BL21 (DE3)
T2 sequence (Q46857 whole entry): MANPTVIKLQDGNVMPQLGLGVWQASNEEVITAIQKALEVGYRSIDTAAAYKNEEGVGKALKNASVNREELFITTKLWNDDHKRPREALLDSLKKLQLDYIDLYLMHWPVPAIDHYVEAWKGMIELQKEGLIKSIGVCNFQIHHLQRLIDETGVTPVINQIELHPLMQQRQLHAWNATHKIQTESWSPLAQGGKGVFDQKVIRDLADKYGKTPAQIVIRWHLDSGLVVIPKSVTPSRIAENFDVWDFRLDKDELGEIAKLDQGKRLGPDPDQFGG

YqhD [16] = target: T1, YqhD; test: Kinetic analysis of purified His-tagged YqhD; conditions: read-out: apparent Km for NADPH; purified enzyme, with furfural
Protocol: (§9) Cells were grown with IPTG to approximately 1.3 g dcw liter^−1, washed with 100 mM phosphate buffer, and lysed using MP Fast Prep-24 (MP Biomedical, Solon Ohio) and Lysing Matrix B. Crude extracts were passed through a 0.22 μm PVDF filter and further purified using a 1 mL HiTrap nickel column. Purified enzymes were dialyzed in 100 mM phosphate buffer using a Thermo Slide-A-Lyser and quantified using a Thermo BCA Protein Assay Kit. […] Apparent Kcat and apparent Km values were determined for both purified enzymes using NADPH and furfural.

DkgA [17] = target: T2, DkgA; test: Kinetic analysis of purified His-tagged DkgA; assay type: biochemical; conditions: purified enzyme, with furfural; read-out: apparent Km for NADPH
Protocol: Both the yqhD and dkgA genes were cloned into a Novagen pET-15b vector and expressed as a His-tagged protein in E. coli BL21 (DE3). Cells were grown with IPTG to approximately 1.3 g dcw liter^−1, washed with 100 mM phosphate buffer, and lysed using MP Fast Prep-24 (MP Biomedical, Solon Ohio) and Lysing Matrix B. Crude extracts were passed through a 0.22 μm PVDF filter and further purified using a 1 mL HiTrap nickel column. Purified enzymes were dialyzed in 100 mM phosphate buffer using a Thermo Slide-A-Lyser and quantified using a Thermo BCA Protein Assay Kit. Purity of YqhD and DkgA were estimated to be greater than 90% by SDS-PAGE. […] Estimated sizes of the purified proteins were in agreement with predicted values of 43 kD and 31 kD, respectively. Apparent Kcat and apparent Km values were determined for both purified enzymes using NADPH and furfural.

[18] = substrate: O=Cc1ccco1; test: cells, lysate or membranes named; conditions: other: purified enzyme, NADPH-dependent reduction
Protocol: as §9

[19] = mineral salts media with 50 g liter^−1 xylose, 48 h
[20] = xylose-mineral salts medium with yeast extract (1.0 g liter^−1)

Molecule: O=Cc1ccc(CO)o1 [5-HMF, 5-hydroxymethyl furfural]
- effect on cell yield or ethanol yield (EMFR9 [1]; 1.0 g l^−1 5-HMF): no detrimental effect
- effect on ethanol production and growth (EMFR9 [1]; 2.5 g 5-HMF l^−1): slowed
- time to completion of ethanol production and growth (EMFR9 [1]; 2.5 g 5-HMF l^−1): 96 h
- effect on growth (LY180 [2]): completely inhibited
- effect on growth (LY180 [3]; 1 g l^−1 5-HMF, tube cultures, 24 h): partially inhibited

Molecule: CC(=O)C=O [Methylglyoxal]
- effect on luciferase activity (yqhD promoter [4]; LY180(pLOI4900), 0.1 mM): increase luciferase activity

Molecule: N[C@@H](CS)C(=O)O [cysteine, L-cysteine]
- restoration of growth by supplement (LY180 [3]; 100 μM cysteine with 1 g l^−1 5-HMF): completely restored
- restoration of growth by supplement (LY180 [3]; 100 μM or 1000 μM cysteine with 2.5 g l^−1 5-HMF): not restored
- effect of supplement on the MIC for 5-HMF (LY180 [3]; cysteine supplements): did not increase the MIC

Molecule: O=Cc1ccco1 [furfural]
- effect on luciferase activity (yqhD promoter [5]): no furfural-dependent response was observed
- effect on luciferase expression (yqhD promoter [6]): luciferase expression was not increased; also recorded: did not increase luciferase activity
- in vivo rate of furfural reduction (LY180 [7]): 0.042±0.001 μmol min^−1 mg dcw^−1
- in vivo rate of furfural reduction (LY180ΔyqhC): 0.025±0.005 μmol min^−1 mg dcw^−1
- effect on luciferase activity (yqhD promoter [4]; LY180(pLOI4900), furfural 1 mM, 5 mM and 10 mM, evident within 5 min): dose-dependent increase in luciferase activity
- effect on luciferase activity (yqhD promoter [4]; LY180 carrying pPyqhD-luc, 15 minutes after addition of furfural): activity was increased
- up-regulation of yqhC, yqhD and dkgA transcripts [8]: > 6 fold
- time to complete reduction of furfural (EMFR9 [9]; 0.4 g liter^−1 furfural): 12 h
- time to complete reduction of furfural (EMFR9 [9]; 1.0 g liter^−1 furfural): 18 h
- effect on growth and fermentation (EMFR9 [9]; furfural 0.4 g liter^−1 or 1.0 g liter^−1): virtually unaffected
- effect on growth and ethanol production (LY180 [10]; 0.4 g liter^−1 furfural, 100 g liter^−1 xylose): initial lag in growth and ethanol production
- effect on growth and ethanol production (LY180 [10]; 1.0 liter^−1 furfural, 72-h incubation): strongly inhibited
- effect on luciferase expression (yqhD promoter [11]): luciferase expression was not increased
- minimal inhibitory concentration (MIC) of furfural (EMFR9 [12]; [19]): ~2000 µg/mL
- furfural MIC (EMFR9 [12]; xylose replaced with glucose): 2500 µg/mL
- furfural MIC (EMFR9 [12]; [20]): 2500 µg/mL
- minimal inhibitory concentration (MIC) of furfural (LY180 [13]; [19]): approximately 1.0 g liter^−1
- furfural MIC (LY180 [13]; xylose replaced with glucose): 1500 µg/mL
- furfural MIC (LY180 [13]; [20]): 2000 µg/mL

Molecule: OCc1ccco1 [furfuryl alcohol]
- MIC (EMFR9 [12]): 15000 µg/mL (≈ 153 mM)
- MIC (LY180 [13]): 15000 µg/mL (≈ 153 mM)

Molecule: COc1cc(C=O)cc(OC)c1O [syringaldehyde]
- MIC (EMFR9 [12]): 2000 µg/mL (≈ 11 mM)
- MIC (LY180 [13]): 2000 µg/mL (≈ 11 mM)

Molecule: NADPH
- Km (YqhD [14]): 8 µM
- Km (DkgA [15]): 23 µM
- Km (YqhD [16]): 8 µM
- Km (DkgA [17]): 23 µM

B1: YqhD (Escherichia coli K-12) (protein)
chain: MNNFNLHTPTRILFGKGAIAGLREQIPHDARVLITYGGGSVKKTGVLDQVLDALKGMDVLEFGGIEPNPAYETLMNAVKLVREQKVTFLLAVGGGSVLDGTKFIAAAANYPENIDPWHILQTGGKEIKSAIPMGCVLTLPATGSESNAGAVISRKTTGDKQAFHSAHVQPVFAVLDPVYTYTLPPRQVANGVVDAFVHTVEQYVTKPVDAKIQDRFAEGILLTLIEDGPKALKEPENYDVRANVMWAATQALNGLIGAGVPQDWATHMLGHELTAMHGLDHAQTLAIVLPALWNEKRDTKRAKLLQYAERVWNITEGSDDERIDAAIAATRNFFEQLGVPTHLSDYGLDGSSIPALLKKLEEHGMTQLGENHDITLDVSRRIYEAAR
- Km [18]: 9000 µM
